“And” between values parts separate entries of the source, which are not always exact repeats. Identical values can stand only once. Like-named read-outs stand apart in the source and are kept apart here.
How the values were obtained:
[1] = target: T1, GSTO1 (Homo sapiens, UniProt P78417); assay: GSTO1 substrate assay (reduction of 4-NPG)
T1 sequence (P78417 1-241): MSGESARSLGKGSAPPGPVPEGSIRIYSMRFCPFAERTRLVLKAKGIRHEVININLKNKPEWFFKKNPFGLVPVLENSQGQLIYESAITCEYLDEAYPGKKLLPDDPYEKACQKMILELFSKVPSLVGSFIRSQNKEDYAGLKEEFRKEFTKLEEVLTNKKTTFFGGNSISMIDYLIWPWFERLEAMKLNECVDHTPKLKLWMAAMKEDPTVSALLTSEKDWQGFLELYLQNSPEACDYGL
Method: For activity screening, we adapted a GSTO1 substrate assay that relies on the quantification of the reduction of S-(4-nitrophenacyl)glutathione (4-NPG), a GSTO1-specific substrate[17], using recombinant human GSTO1 in a high-throughput screening format.
Enzyme activity was measured by monitoring the reduction of 4-NPG to 4-nitroacetophenone by GSTO1.

[2] = target: T1, GSTO1; assay: In-gel fluorescence competitive CMFDA binding assay, recombinant GSTO1; conditions: inhibition of CMFDA binding
Source text: (§1) Primary screening of GSTO inhibitors was based on competitive inhibition of CMFDA binding to endogenous GSTO. Briefly, HCT116^p53+/+ cells (4 × 10^4 per well) were coated in a 12-well plate. […] Cells were then washed with PBS and lysed using Cell Lytic M buffer (Sigma). […] Gels were immediately scanned on a Typhoon variable mode imager (Amersham Bioscience). Quantification of fluorescent band intensity was done using Image Quant 5.2 software.

[3] = target: T2, endogenous GSTO1 (Homo sapiens, UniProt P78417); assay: In-gel fluorescence competitive CMFDA binding assay, endogenous GSTO1 in HCT116; conditions: 10 µM; inhibition of CMFDA binding, HCT116
T2 sequence (P78417 1-241): T1 sequence (P78417 1-241)
Source text: as §1

[4] = test system: HCT116p53+/+ cell; assay: MTT cell proliferation at single concentration; type: cell-based, human
Method: Cell proliferation was assessed by a MTT assay. Cancer cells were seeded in 96-well microtitre plates and, after overnight attachment, treated with GSTO1 inhibitors. After 72 h, MTT solution (3 mg ml^−1; 20 μl) was added to each well and cells were incubated for 3 h at 37 °C. After incubation, media from each well was removed and the dark blue formazan crystals formed by live cells were dissolved in DMSO (150 μl per well). The absorbance intensity was measured at 570 nm on a microplate reader (Molecular Devices, Sunnyvale, CA, USA). Cell viability after 24 h treatment was assessed using ApoTox-Glo triplex assay (Promega) according to the manufacturer's protocol. At least three independent dose–response experiments with each concentration tested in triplicate were performed for each cell line.

[5] = read-out: GSTO substrate assay IC50, cluster screening tables

SMILES | GSTO substrate assay % Inhibition at 10 µM [1] [%] | IC50 [1, 5] [nM] | GSTO binding assay (% Inhibition at 10 µM) Recombinant [2] [%] | GSTO binding assay (% Inhibition at 10 µM) Endogenous [3] [%] | % Inhibition of HCT116p53+/+ cell proliferation at 10 µM [4] | IC50 ([1]; Substrate assay IC50, pilot screening) [nM]
Cc1c(-c2ccccc2)sc(NC(=O)CCl)c1C(=O)N1CCOCC1 [C2-15] | 87.8 | 360 | 63.2 | 74.2 |  | 
COc1cc(C(=O)NNC(=O)CCl)cc(OC)c1OC [C3-22] | 10.4 |  | -2.4 | -12.1 |  | 
O=C(CCl)Nc1sc2c(c1C(=O)c1ccccc1)CCCC2 [C2-20] | 91.1 |  | 68.3 | 39.6 |  | 
O=C(CCl)N1CCc2cc([N+](=O)[O-])ccc21 [C5-19] | 40.0 |  | 72.2 |  | 84.6% and 75.2% | 
Cc1cccc(NC(=S)NC(NC(=O)CCl)C(Cl)(Cl)Cl)c1 (stereo not shown) [C3-27] | 54.2 | 1650 | 63.4 | 63.8 |  | 
COC(=O)c1ccc(C(=O)OC)c(NC(=O)CCl)c1 [C1-8] | 100.9 | 5680 | 61.2 | 56.5 |  | 
O=C(CCl)Nc1ccccc1N1CCOCC1 [C1-21] | -8.4 |  | 69.9 | 58.2 |  | 
O=C(CCl)N1CCC(Cc2ccccc2)CC1 [C5-1] | 83.5 | 48 | 67.5 |  | 93.4% | 
CCOC(=O)c1sc(-c2ccccc2)cc1NC(=O)CCl [C2-11] | -1.5 |  | 58.2 | 19.9 |  | 
Cc1cc(C)c(NC(=O)CNC(=O)CCl)c(C)c1 [C3-24] | 72.3 |  | 29.2 | 58.8 |  | 
Cc1cc(C)c(-c2csc(NC(=O)CCl)n2)cc1C [C2-23] | 26.4 |  | 76.0 |  |  | 
O=C(CCl)NCc1ccccc1CN1CCOCC1 [C3-1] | 11.1 |  | 6.0 | 7.3 |  | 
CCN(c1ccc(NC(=O)CCl)cc1)C(C)C [C1-15] | 91.3 |  | 43.8 | 78.6 |  | 
CCC1(c2ccccc2)NC(=O)N(NC(=O)CCl)C1=O (stereo not shown) [C2-29] | 42.7 |  | 13.5 | 65.0 |  | 
O=C(CCl)Nc1ccc(OC(F)F)cc1 [C1-6] | 22.7 |  | 45.6 | 87.6 |  | 
CCOC(=O)c1c(-c2ccc(OC)c(OC)c2)csc1NC(=O)CCl [C2-12] | 3.4 |  | 74.9 | 59.8 |  | 
CCOc1ccc(NC(=O)CCl)cc1S(=O)(=O)N1CCCCC1 [C1-30] | 75 | 79 | 75.9 | 80.8 |  | 
O=C(CCl)Nc1c(Br)cc([N+](=O)[O-])cc1Br [C1-3] | -4.9 |  | 0.9 | 3.8 |  | 

SMILES | GSTO substrate assay % Inhibition at 10 µM [1] [%] | IC50 [1, 5] [nM] | GSTO binding assay (% Inhibition at 10 µM) Recombinant [2] [%] | GSTO binding assay (% Inhibition at 10 µM) Endogenous [3] [%] | % Inhibition of HCT116p53+/+ cell proliferation at 10 µM [4] | IC50 ([1]; Substrate assay IC50, pilot screening) [nM]
CC(C)c1ccc(C(NC(=O)CCl)C(C)C)cc1 (stereo not shown) [C3-6] | 56.2 | 7880 | 53.7 | 51.3 |  | 
CCOc1ccc(NC(=O)NC(=O)CCl)cc1OCC [C3-19] | 99.5 | 508 | 59.2 | 65.2 |  | 
CN(CCOc1ccc(Cl)cc1)C(=O)CCl [C4-9] | 20.7 |  | 66.7 | 43.5 |  | 
O=C(CCl)N1CCN(S(=O)(=O)c2ccc(F)c(F)c2)CC1 [C5-14] | 91.8 | 496 | 61.2 | 60.9 |  | 
CCOC(=O)c1c(-c2ccccc2)csc1NC(=S)NC(=O)CCl [C3-26] | 69.5 |  | 68.2 | 42.2 |  | 
Cc1nn(Cc2ccccc2)c(C)c1CNC(=O)CCl [C3-30] | 83.1 |  | 10.6 | 14.5 |  | 
COc1cc2c(cc1OC)CN(C(=O)CCl)CC2 [C5-17] | 69.5 |  | 9.4 |  |  | 
O=C(CCl)Nc1ccccc1NC(=O)CCl [4c] |  |  |  |  |  | 80800
CCOc1ccc(OCCNC(=O)CCl)cc1 [C3-13] | 62.6 |  | 25.1 |  |  | 
CCOc1ccc(/C=C/C2=Cc3c(sc(NC(=O)CCl)c3C#N)C(C)(C)C2)cc1 [C2-21] | 99.5 | 350 | 78.6 | 52.3 |  | 
O=C(CCl)NCC1(N2CCCCC2)CCCCC1 [C3-31] | 0.3 |  | -13.7 | 23.0 |  | 
O=C(CCl)NCCN1C(=O)SC(=Cc2ccccc2F)C1=O [C3-32] | 12.5 |  | 23.6 | 53.1 |  | 
CCN(C(=O)CCl)C1CCS(=O)(=O)C1 (stereo not shown) [C4-4] | -0.8 |  | 5.9 | 17.0 |  | 
CCN(CC)c1ccc(S(=O)(=O)N2CCOCC2)cc1NC(=O)CCl [C1-32] | 84.2 |  | 4.4 | 48.2 |  | 
O=C(CCl)NCc1cc([N+](=O)[O-])ccc1O [C3-3] | 93.2 |  | 47.9 | 52.0 |  | 
Cc1ccc(CSCCNC(=O)CCl)cc1 [C3-15] | 5.1 |  | 35.7 | 86.9 |  | 
COCCN(C(=O)CCl)c1c(N)n(Cc2ccccc2)c(=O)[nH]c1=O [C4-18] | 14.2 |  | 4.5 | 18.7 |  | 
O=C(CCl)NC(=O)c1cccc2ccccc12 [C3-18] | 0.6 |  | 0.3 | 37.5 |  | 
